The text below walks through data of patent US9492471B2, “Methods of treating a disease or disorder associated with Bruton'S Tyrosine Kinase” (Celgene Avilomics Research, Inc., priority 2013, dated 2016).

Like-named read-outs stand apart in the source and are kept apart here.

Holding throughout (test): HotSpot kinase profiling
Holding throughout (format): biochemical

The target of one assay is T1, NEK4 (Homo sapiens, UniProt P51957).
T1 construct: purchased Reaction Biology Corp
The method, boiled down:
(§1)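 Radio-isotope P81 filtration format. Substrate + required cofactors in reaction buffer, kinase added, 2 h RT. Stop, wash with 0.1% phosphoric acid, detect. % inhibition vs DMSO; mean of duplicates where repeated.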

The next assay addresses T2, NEK9 (Homo sapiens, UniProt Q8TD19).
T2 construct: purchased Reaction Biology Corp
T2 sequence (Q8TD19 1-979): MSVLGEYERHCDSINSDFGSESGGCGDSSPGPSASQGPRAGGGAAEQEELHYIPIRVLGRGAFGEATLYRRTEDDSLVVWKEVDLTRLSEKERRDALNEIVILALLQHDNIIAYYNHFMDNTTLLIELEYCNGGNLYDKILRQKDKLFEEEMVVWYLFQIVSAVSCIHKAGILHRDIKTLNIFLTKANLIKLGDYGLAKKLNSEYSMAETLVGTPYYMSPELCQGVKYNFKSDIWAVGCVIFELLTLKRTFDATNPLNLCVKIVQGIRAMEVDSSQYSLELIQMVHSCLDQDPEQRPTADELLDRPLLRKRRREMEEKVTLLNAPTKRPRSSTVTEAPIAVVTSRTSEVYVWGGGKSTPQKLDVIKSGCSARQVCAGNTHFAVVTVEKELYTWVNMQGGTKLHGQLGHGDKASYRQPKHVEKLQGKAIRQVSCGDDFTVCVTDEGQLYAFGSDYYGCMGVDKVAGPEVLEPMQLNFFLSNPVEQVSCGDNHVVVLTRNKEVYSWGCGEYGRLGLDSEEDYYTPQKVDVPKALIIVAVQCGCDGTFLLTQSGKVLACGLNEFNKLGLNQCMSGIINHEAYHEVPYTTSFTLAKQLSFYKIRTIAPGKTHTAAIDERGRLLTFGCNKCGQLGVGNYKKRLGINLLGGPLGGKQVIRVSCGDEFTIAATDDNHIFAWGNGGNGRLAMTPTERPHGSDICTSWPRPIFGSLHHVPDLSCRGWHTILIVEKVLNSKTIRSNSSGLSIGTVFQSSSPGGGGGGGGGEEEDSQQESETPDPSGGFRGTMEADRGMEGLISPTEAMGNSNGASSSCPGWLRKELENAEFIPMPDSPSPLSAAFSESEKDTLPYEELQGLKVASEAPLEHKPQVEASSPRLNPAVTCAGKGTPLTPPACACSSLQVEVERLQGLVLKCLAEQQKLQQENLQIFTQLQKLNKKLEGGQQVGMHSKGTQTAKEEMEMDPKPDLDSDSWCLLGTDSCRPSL
The method, boiled down:
as §1

The target of a further assay is T3, c-MER (Homo sapiens, UniProt Q12866).
T3 construct: purchased Reaction Biology Corp
T3 sequence (Q12866 21-999): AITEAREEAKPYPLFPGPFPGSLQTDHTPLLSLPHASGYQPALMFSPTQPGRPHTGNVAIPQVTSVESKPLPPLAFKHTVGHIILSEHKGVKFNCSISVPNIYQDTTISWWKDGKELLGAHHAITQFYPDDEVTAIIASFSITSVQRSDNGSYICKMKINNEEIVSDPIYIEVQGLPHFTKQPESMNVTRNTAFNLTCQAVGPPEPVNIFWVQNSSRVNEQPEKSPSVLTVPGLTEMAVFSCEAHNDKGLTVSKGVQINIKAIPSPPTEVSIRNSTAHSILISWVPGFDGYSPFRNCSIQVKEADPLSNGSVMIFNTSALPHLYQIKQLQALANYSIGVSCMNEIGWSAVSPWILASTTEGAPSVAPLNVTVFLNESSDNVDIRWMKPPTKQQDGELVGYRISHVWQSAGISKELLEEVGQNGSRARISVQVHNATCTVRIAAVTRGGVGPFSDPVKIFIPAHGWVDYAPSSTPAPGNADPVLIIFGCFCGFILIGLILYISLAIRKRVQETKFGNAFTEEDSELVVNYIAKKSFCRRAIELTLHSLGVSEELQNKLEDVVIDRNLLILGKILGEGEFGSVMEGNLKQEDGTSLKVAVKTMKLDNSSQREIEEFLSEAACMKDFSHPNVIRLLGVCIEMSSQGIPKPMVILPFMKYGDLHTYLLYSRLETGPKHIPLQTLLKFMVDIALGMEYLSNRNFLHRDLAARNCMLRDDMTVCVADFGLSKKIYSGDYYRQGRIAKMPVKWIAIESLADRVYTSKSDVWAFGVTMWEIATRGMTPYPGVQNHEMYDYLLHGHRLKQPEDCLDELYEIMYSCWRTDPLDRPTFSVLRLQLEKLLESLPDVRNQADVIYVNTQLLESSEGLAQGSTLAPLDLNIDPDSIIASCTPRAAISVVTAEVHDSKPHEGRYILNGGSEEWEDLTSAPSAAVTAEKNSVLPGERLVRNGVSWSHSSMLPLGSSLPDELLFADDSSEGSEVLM
The method, boiled down:
as §1

Another assay concerns the target T4, FAK/PTK2 (Homo sapiens, UniProt Q05397).
T4 construct: purchased Reaction Biology Corp
The procedure, abridged: as §1

Another assay has as its target T5, MLK2/MAP3K10 (Homo sapiens, UniProt Q02779).
T5 construct: purchased Reaction Biology Corp
The procedure, abridged: as §1

Setting [1] is: read-out: % Enzyme Activity (relative to DMSO controls) Run 1.
[2] abbreviates: read-out: % Enzyme Activity (relative to DMSO controls) Run 2.

T4 sequence (Q05397 whole entry): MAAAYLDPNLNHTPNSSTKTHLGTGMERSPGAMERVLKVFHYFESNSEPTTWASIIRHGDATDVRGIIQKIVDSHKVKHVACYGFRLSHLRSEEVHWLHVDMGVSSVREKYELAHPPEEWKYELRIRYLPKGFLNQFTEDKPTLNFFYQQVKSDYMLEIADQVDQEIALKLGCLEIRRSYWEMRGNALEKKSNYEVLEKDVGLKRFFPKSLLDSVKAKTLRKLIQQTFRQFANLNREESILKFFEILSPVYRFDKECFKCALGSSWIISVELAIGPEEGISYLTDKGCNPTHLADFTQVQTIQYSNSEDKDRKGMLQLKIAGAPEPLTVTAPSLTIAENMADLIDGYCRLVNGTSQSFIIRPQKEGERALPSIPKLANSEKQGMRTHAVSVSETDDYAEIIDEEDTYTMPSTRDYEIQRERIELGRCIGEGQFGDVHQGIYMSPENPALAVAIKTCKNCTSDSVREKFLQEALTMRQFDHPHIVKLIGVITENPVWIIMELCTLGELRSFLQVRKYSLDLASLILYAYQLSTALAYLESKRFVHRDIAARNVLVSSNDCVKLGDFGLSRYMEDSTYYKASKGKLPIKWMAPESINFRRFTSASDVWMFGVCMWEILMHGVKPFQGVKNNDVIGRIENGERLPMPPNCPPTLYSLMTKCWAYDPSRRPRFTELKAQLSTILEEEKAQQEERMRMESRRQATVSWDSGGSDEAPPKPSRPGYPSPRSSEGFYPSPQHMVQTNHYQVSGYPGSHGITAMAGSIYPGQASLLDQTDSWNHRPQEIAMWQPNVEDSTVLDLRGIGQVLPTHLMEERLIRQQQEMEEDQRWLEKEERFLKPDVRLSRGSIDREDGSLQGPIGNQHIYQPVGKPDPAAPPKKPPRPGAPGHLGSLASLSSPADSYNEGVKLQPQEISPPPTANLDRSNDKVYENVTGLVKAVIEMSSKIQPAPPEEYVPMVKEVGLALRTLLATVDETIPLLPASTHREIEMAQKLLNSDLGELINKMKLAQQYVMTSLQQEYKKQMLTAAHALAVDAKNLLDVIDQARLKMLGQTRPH
T1 sequence (P51957 whole entry): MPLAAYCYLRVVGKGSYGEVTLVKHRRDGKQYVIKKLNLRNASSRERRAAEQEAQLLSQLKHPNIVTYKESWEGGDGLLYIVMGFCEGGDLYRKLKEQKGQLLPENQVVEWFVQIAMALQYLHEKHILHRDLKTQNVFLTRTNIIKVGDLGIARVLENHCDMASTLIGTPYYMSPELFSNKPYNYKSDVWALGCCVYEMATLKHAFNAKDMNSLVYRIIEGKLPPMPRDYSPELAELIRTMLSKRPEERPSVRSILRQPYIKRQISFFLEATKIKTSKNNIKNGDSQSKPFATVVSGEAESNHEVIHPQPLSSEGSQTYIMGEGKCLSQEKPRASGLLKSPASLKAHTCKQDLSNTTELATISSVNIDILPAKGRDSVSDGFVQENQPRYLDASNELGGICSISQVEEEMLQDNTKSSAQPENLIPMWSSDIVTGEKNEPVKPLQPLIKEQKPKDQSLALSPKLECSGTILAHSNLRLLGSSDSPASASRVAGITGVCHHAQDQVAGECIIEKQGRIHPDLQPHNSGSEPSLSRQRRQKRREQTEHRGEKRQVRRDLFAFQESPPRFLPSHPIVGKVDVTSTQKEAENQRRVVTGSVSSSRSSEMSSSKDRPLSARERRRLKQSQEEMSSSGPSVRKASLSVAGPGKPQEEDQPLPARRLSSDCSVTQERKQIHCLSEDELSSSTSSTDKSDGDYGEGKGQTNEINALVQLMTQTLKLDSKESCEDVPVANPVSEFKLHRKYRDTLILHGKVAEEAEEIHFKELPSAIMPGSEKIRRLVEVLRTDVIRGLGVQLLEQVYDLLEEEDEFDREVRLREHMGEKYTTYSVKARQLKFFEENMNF
T5 sequence (Q02779 whole entry): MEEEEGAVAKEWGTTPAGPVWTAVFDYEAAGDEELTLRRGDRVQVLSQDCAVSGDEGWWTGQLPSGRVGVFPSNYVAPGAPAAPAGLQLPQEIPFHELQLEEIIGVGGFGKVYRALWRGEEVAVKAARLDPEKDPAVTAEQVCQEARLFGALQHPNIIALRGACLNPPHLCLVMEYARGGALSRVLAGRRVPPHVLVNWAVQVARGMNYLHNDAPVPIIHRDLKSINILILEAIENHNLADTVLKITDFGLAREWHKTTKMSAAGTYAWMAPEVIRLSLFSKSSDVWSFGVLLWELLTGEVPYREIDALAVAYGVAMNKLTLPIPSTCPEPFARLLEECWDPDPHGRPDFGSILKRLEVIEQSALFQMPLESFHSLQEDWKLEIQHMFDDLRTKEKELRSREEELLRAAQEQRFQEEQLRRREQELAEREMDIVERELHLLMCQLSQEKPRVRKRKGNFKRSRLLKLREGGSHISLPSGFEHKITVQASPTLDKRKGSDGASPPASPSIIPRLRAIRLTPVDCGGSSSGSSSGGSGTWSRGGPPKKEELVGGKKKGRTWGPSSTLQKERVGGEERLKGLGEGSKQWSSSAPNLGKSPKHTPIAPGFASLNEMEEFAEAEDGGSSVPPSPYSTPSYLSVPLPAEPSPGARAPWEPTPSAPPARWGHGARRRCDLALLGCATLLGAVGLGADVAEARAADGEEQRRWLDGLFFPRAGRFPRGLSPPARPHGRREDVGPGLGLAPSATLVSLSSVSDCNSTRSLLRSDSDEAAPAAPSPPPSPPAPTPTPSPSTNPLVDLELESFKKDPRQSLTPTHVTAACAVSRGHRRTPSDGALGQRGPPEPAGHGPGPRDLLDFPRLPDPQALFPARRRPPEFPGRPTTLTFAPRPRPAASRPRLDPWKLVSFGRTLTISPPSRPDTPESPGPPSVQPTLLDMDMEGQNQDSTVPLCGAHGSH

As to `C=CC(=O)Nc1cccc(Nc2nc(Nc3ccc(OCCOC)c(F)c3)ncc2F)c1` [Compound 2], the inhibition at 3 µM amounted to 13.5% against NEK4; 15.9% against NEK9; 33.6% against c-MER; 37.1% against FAK/PTK2; 54.6% at MLK2/MAP3K10. For the same compound, the remaining activity at 3 µM on NEK4 (setting [1]) came to 84.6%; on NEK4 (setting [2]) it was 88.3%; on NEK9 (setting [1]), 83.8%; on NEK9 (setting [2]), 84.3%; at c-MER (setting [1]), 66.5%; on c-MER (setting [2]), 66.4%. In addition, the remaining activity at 3 µM at FAK/PTK2 (setting [1]) came out at 62.8%; at FAK/PTK2 (setting [2]), 62.9%; at MLK2/MAP3K10 (setting [1]), 45.4%; at MLK2/MAP3K10 (setting [2]), 45.3%.

By inhibition is commonly meant the drop in the measured response relative to a control, in per cent. The low end stands for a weak effect, the high end for a strong effect.
